Experimental data as given in US20110257186A1, “COMPOSITIONS AND METHODS FOR TREATING VISUAL DISORDERS” (priority 2010, published 2011).
Entries after “also recorded” stand apart in the source; their conditions may differ.

System: rat visual cortex
Assay: LTP in visual cortex slice
Settings: rat primary visual cortex brain slices; fEPSP amplitude after theta burst stimulation; drug infused 20 minutes before LTP induction
Excerpt: The effect of the Ampakine, i.e. benzo[1,2,5]oxadiazol-5-yl-piperidin-1-yl-methanone, in the visual cortex was investigated using brain slices prepared from primary visual cortex to determine if this compound facilitates the induction of long-term potentiation (LTP). LTP is a well established cellular model for synaptic plasticity and the encoding of information. The visual cortex is one synapse removed from the eye and integrates visual signals generated by the retina. It is thus essential for decoding, processing and transforming visual inputs originating in the eye, and proper visual cortical function is necessary for normal vision.
Following decapitation of the anesthetized rat, the brain was rapidly removed and immersed in ice-cold artificial cerebrospinal fluid (ACSF) containing (in mM) NaCl 124, KCl 3, KH2PO4 1.25, CaCl2 3.4, MgSO4 2.5, NaHCO3 26, and D-glucose 10. A block of visual cortex was created by removing the frontal ⅔ portion of the brain and the cerebellum. […] This is repeated 2 additional times with a 1 minute inter-train interval, and the level of LTP was recorded for at least 30 min. Changes in amplitude of the synaptic response were used to measure the extent of LTP, since the amplitude was determined to be the more consistent parameter than the slope of the response. […] LTP was recorded for at least 30 min after induction.

## O=C(c1ccc2nonc2c1)N1CCCCC1 [benzo[1,2,5]oxadiazol-5-yl-piperidin-1-yl-methanone]
  enhancement of visual cortex long-term potentiation (LTP): dose-dependent facilitation of long-term potentiation in rat visual cortex; also recorded: marked and dose-dependent enhancement of visual cortex LTP
